We go through six molecules from US9809609B2, “Water-soluble benzoazepine compound and its pharmaceutical composition” (OTSUKA PHARMACEUTICAL CO., LTD., priority 2005, dated 2017).

≈ marks a conversion by molar mass, not a printed value. Marks after values point to notes of the source that are not given here.

The nature of data set [1]: Solubility of salt of compound (1) in water at 37° C. The data set is classed as physicochemical. The settings on record: thermodynamic from solid, shaking at 37° C. for 30 minutes. Here is the method: A suitable amount of test compound is added to a test tube, and 2.5 ml of water is added thereto. After shaking at 37° C. for 30 minutes, the mixture is filtered through a 0.45-μm membrane filter, and 0.5 ml of the filtrate is accurately weighed. Mobile phase is added thereto to make exactly 50 ml, preparing a test solution (dilution ratio: 100-fold). Approximately 5 mg of free-form authentic sample is accurately weighed, and acetonitrile is added thereto to make exactly 50 ml. A 2 ml of this liquid is accurately weighed, and mobile phase is added thereto to make exactly 20 ml, preparing a standard solution (equivalent to 10 μg/ml). By liquid chromatography under the following conditions, 20 μl of both the test solution and standard solution are tested to obtain the peak areas At and As of the test solution and standard solution. Concentration(μg/ml)=Ws/5×10×At/As×100=Ws×At/As×200 Ws: weighed amount of authentic sample (mg) Test Conditions • Detection: ultraviolet absorption photometer • (measurement wavelength: 254 nm) • Column: TOSOH TSKgel ODS-80Ts (0.46 cm×15 cm) • Column temperature: constant temperature of approximately 40° C. • Mobile phase: water/acetonitrile/trifluoroacetic acid=500/500/1 • Flow rate: 1 ml/min

The nature of data set [2]: Solubility of compound (1b) in buffer solution (room temperature). The data set is classed as physicochemical. The settings on record: for Solubility of compound (1b): crystals could not be added in excess; for solubility thermodynamic at 16 days: thermodynamic from solid, shaken 16 days.
Data set [3] in a line: Serum concentration of tolvaptan in female rats after tail-vein administration of a compound (1b) solution. The data set is classed as in vivo. The settings on record: dose producing 1 mg of tolvaptan per kg of body weight. The procedure:
A solution of compound (1b) (equivalent to 1 mg of tolvaptan per ml of solution) was prepared. [table] A 79 mg quantity of sodium dihydrogenphosphate•dihydrate and 5 g of mannitol were dissolved in about 90 ml of water for injection. A sodium hydroxide solution was added thereto, and a solution of pH 7 was prepared. Compound (1b) equivalent to 100 mg of tolvaptan was dissolved in this solution. A sodium hydroxide solution was added thereto, and the pH was adjusted to 7. […] This solution was rapidly administered to female rats via the tail vein at a dose such that 1 mg of tolvaptan is produced per kg of body weight. From time to time, blood was collected from the jugular vein under light ethyl ether anesthesia, and serum concentration of tolvaptan was determined by high-speed liquid chromatography (HPLC).

Data set [4] is described as follows: Solubility of tolvaptan in Britton-Robinson buffer and purified water. Conditions: thermodynamic from solid, shaken 4 hours. The data set is classed as physicochemical. Here is the method: Tolvaptan was added in excess to Britton-Robinson buffer (pH 2, pH 7, or pH 12) or purified water, and then shaken at 25° C.±1° C. for 4 hours. Each solution was filtered through a filter, and then, using HPLC, the solubility of tolvaptan was quantified by absolute calibration.

Consider `Cc1ccccc1C(=O)Nc1ccc(C(=O)N2CCCC(OP(=O)([O-])[O-])c3cc(Cl)ccc32)c(C)c1.[Mg+2]` (stereo not shown) [Example 7], for which, in data set [1], the solubility at 30 min was > 1000 µg/mL.
Take `Cc1ccccc1C(=O)Nc1ccc(C(=O)N2CCCC(OP(=O)([O-])O)c3cc(Cl)ccc32)c(C)c1.[Na+]` (stereo not shown) [Example 8]: the solubility at 30 min in data set [1] was > 1000 µg/mL.
Consider `Cc1ccccc1C(=O)Nc1ccc(C(=O)N2CCCC(OP(=O)([O-])O)c3cc(Cl)ccc32)c(C)c1.[K+]` (stereo not shown) [Example 11], for which the solubility at 30 min in data set [1] is > 1000 µg/mL.
On to `COP(=O)(NCCO)OC1CCCN(C(=O)c2ccc(NC(=O)c3ccccc3C)cc2C)c2ccc(Cl)cc21` (stereo not shown) [Example 20], for which the solubility at 30 min in data set [1] was > 1000 µg/mL.
As for `Cc1ccccc1C(=O)Nc1ccc(C(=O)N2CCCC(OP(=O)(O)O)c3cc(Cl)ccc32)c(C)c1` (stereo not shown) [compound (1b)], the melting point fell in the range of 150 to 152 °C. Moreover, in data set [2] (Citric acid buffer (100 mM), pH before dissolution 8, pH after dissolution 4.2, room temperature), the “Solubility of compound (1b)” value was “at least 8.3* w/v %”. Further, the “Solubility of compound (1b)” value in data set [2] (Sodium hydrogencarbonate buffer (100 mM), pH before dissolution 8, pH after dissolution 3.1, room temperature) was “at least 7.1* w/v %”. The “Solubility of compound (1b)” value in data set [2] (Sodium phosphate buffer (100 mM), pH before dissolution 8, pH after dissolution 3.3, room temperature) is reported as “at least 7.1* w/v %”. For the same molecule, the “Solubility of compound (1b)” value in data set [2] (Sodium phosphate buffer (100 mM), pH before dissolution 9, pH after dissolution 3.3, room temperature) is “at least 7.4* w/v %”. In addition, the “Solubility of compound (1b)” value in data set [2] (Sodium phosphate buffer (100 mM), pH before dissolution 10, pH after dissolution 3.4, room temperature) is on record as “at least 6.5* w/v %”. In data set [2] (Tris buffer (100 mM), pH before dissolution 9, pH after dissolution 3.4, room temperature), the “Solubility of compound (1b)” value is listed as “at least 6.3* w/v %”. Further, the thermodynamic solubility at 16 days in data set [2] (Tris/HCl buffer, pH 8, aqueous buffer, Tris buffer (100 mM), pH before dissolution 8, pH after dissolution 2.9, room temperature) amounted to 7400 µg/mL (≈ 14 mM). This molecule also returned a thermodynamic solubility at 16 days in data set [2] (pH 5, aqueous buffer, Sodium phosphate buffer (100 mM), pH before dissolution 5, pH after dissolution 3.0, room temperature) of 5800 µg/mL (≈ 11 mM). Besides, the solubility (thermodynamic) at 16 days in data set [2] (pH 6, aqueous buffer, Sodium phosphate buffer (100 mM), pH before dissolution 6, pH after dissolution 3.0, room temperature) was 13100 µg/mL (≈ 24.8 mM). The molecule also had a thermodynamic solubility at 16 days in data set [2] (pH 7, aqueous buffer, Sodium phosphate buffer (100 mM), pH before dissolution 7, pH after dissolution 3.1, room temperature) of 7600 µg/mL (≈ 14.4 mM). Also, in data set [1], the solubility at 30 min was > 1000 µg/mL. In addition, the “Time at which tolvaptan was initially detected in serum after intravenous administration” value in data set [3] (rapid tail-vein administration of compound (1b) solution) was “five”. Moreover, the “Hydrolysis of compound (1b) into tolvaptan in rats” value in data set [3] (tail-vein administration) is listed as “rapidly hydrolyzed into tolvaptan”.
In the case of `Cc1ccccc1C(=O)Nc1ccc(C(=O)N2CCCC(O)c3cc(Cl)ccc32)c(C)c1` (stereo not shown) [tolvaptan, Tolvaptan], the solubility (thermodynamic) at 4 h was determined as 0.2 µg/mL (≈ 0.000445 mM) in data set [4] (aqueous buffer, Britton-Robinson buffer pH 2, 25° C.±1° C.); 0.3 µg/mL (≈ 0.000668 mM) in data set [4] (aqueous buffer, Britton-Robinson buffer pH 7, 25° C.±1° C.); 0.2 µg/mL (≈ 0.000445 mM) in data set [4] (aqueous buffer, Britton-Robinson buffer pH 12, 25° C.±1° C.); 0.2 µg/mL (≈ 0.000445 mM) in data set [4] (purified water, 25° C.±1° C.).

Broadly, the solubility is the dissolved amount per volume that the medium holds. By solubility (thermodynamic) is commonly meant solubility found after equilibrating the solid with the medium. The melting point is the temperature of the solid-liquid transition.
